The source of these data is US8530493B2, “Indolopyridines as Eg5 kinesin modulators” (4SC AG, priority 2006, dated 2013).

Experiment [1] relates to RKO p27 uninduced (proliferating) colon adenocarcinoma cells. Briefly: Alamar Blue cell viability assay, RKO p27 uninduced (proliferating). It counts as cell-based. To be noted: Homo sapiens, RKOp27, Table B1, anti-proliferative/cytotoxic activity, 72 hours, read-out: −log EC50 RKO p27 uninduced (proliferating) (converted). As to the method: The anti-proliferative/cytotoxic activity of the compounds described herein can be tested on subclones of RKO human colon adenocarcinoma cells (Schmidt et al., Oncogene 19, 2423-2429; 2000) using the Alamar Blue cell viability assay (described in O'Brien et al. Eur J Biochem 267, 5421-5426, 2000). The compounds are dissolved as 10 mM solutions in DMSO and subsequently diluted in semi-logarithmic steps. DMSO dilutions are further diluted 1:100 into Dulbecco's modified Eagle's medium (DMEM) containing 10% fetal calf serum to a final concentration twice as much as the final concentration in the test. RKO subclones are seeded into 96 well flat bottom plates at a density of 4000 cells per well in a volume of 50 μl per well. 24 hours after seeding the 50 μl each of the compound dilutions in DMEM medium are added into each well of the 96 well plate. Each compound dilution is tested as triplicates. Wells containing untreated control cells are filled with 50 μl DMEM medium containing 1% DMSO. The cells are then incubated with the substances for 72 hours at 37° C. in a humidified atmosphere containing 5% carbon dioxide. To determine the viability of the cells, 10 μl of an Alamar Blue solution (Biosource) are added and the fluorescence is measured at an extinction of 544 nm and an emission of 590 nm. For the calculation of the cell viability the emission value from untreated cells is set as 100% viability and the emission rates of treated cells are set in relation to the values of untreated cells. Viabilities are expressed as % values. The Graphpad Prism program is used for the calculation of EC50 values for anti-proliferative/cytotoxic activity out of the obtained dose-response curves.
(§1) To determine the cell cycle specific mode of action, subclones of RKO colon adenocarcinoma cells (RKOp21 or RKOp27 as described by Schmidt et al. in Oncogene 19, 2423-2429; 2000) are seeded into 96 well flat bottom plates at a density of 16000 cells per well in a volume of 50 μl per well in DMEM growth medium with 10% FCS containing 10 μM Ponasterone A. 24 hours after seeding the 50 μl each of the compound dilutions in DMEM medium are added into each well of the 96-well plate. Each compound dilution is tested as triplicates. Wells containing untreated control cells are filled with 50 μl DMEM medium containing 1% DMSO. The cells are then incubated with the substances for 72 hours at 37° C. in a humidified atmosphere containing 5% carbon dioxide. To determine the viability of the cells, 10 μl of an Alamar Blue solution (Biosource) are added and the fluorescence is measured at an extinction of 544 nm and an emission of 590 nm. For the calculation of the cell viability the emission value from untreated cells is set as 100% viability and the emission rates of treated cells are set in relation to the values of untreated cells. Viabilities are expressed as % values. The Graphpad Prism program (GraphPad Software, Inc) is used for the calculation of EC50 values out of the obtained dose-response curves. Viability is compared of proliferating cells grown in the absence of the inducer Ponasterone A, versus viability of cells arrested by the expression of ectopic p27Kip1 induced by Ponasterone A.
(§2) Representative values for anti-proliferation/cytotoxicity [measured as −log EC50 (mol/l)] determined in the aforementioned assays follow from the following tables B1, B2 and B3, in which the numbers of the compounds correspond to the numbers of the examples.

The subject of experiment [2] is RKO p27 induced (arrested) colon adenocarcinoma cells. Kind of experiment: Alamar Blue cell viability assay, RKO p27 induced by Ponasterone A (arrested). It counts as cell-based. To be noted: Homo sapiens, RKOp27, Table B1, cells arrested by Ponasterone A-induced p27Kip1, 72 hours, read-out: −log EC50 RKO p27 induced (arrested) (converted). On the procedure: as §1, §2

As to `CCNCCN1C(=O)N2[C@H](c3cccc(O)c3)c3[nH]c4ccc(Cl)cc4c3C[C@@]2(C)C1=O` (racemic) [Example 37, (3aSR,10RS)-6-Chloro-2-(2-ethylamino-ethyl)-10-(3-hydroxy-phenyl)-3a-methyl-3a,4,9,10-tetrahydro-2,9,10a-triaza-cyclopenta[b]fluorene-1,3-dione], the EC50 in experiment [1] is not above 39.8 nM; in experiment [2], not below 316 nM.

For `CCOc1ccc2[nH]c3c(c2c1)C[C@@]1(C)C(=O)N(CCN)C(=O)N1[C@@H]3c1cccc(O)c1` (racemic) [Example 45, (3aSR,10RS)-2-(2-Amino-ethyl)-6-ethoxy-10-(3-hydroxy-phenyl)-3a-methyl-3a,4,9,10-tetrahydro-2,9,10a-triaza-cyclopenta[b]fluorene-1,3-dione], the EC50 in experiment [1] is not above 39.8 nM; in experiment [2], not below 316 nM.

On to `CN1C(=O)N2[C@H](c3cccc(O)c3)c3[nH]c4ccc(Cl)cc4c3C[C@@]2(C)C1=O` (racemic) [Example 5, (3aSR,10RS)-6-Chloro-10-(3-hydroxy-phenyl)-2,3a-dimethyl-3a,4,9,10-tetrahydro-2,9,10a-triaza-cyclopenta[b]fluorene-1,3-dione], for which the EC50 in experiment [1] was 39.8 to 251 nM; in experiment [2] it was not below 3160 nM.

Turning to `CNCCN1C(=O)N2[C@H](c3cccc(O)c3)c3[nH]c4ccc(Cl)cc4c3C[C@@]2(C)C1=O` (racemic) [Example 28, (3aSR,10RS)-6-Chloro-10-(3-hydroxy-phenyl)-3a-methyl-2-(2-methylamino-ethyl)-3a,4,9,10-tetrahydro-2,9,10a-triaza-cyclopenta[b]fluorene-1,3-dione], the EC50 in experiment [1] is not above 39.8 nM; in experiment [2], not below 3160 nM.

For `COc1ccc2[nH]c3c(c2c1)C[C@@]1(C)C(=O)N(CCCn2ccnc2)C(=O)N1[C@@H]3c1cccc(O)c1` (racemic) [Example 20, (3aSR,10RS)-10-(3-Hydroxy-phenyl)-2-(3-imidazol-1-yl-propyl)-6-methoxy-3a-methyl-3a,4,9,10-tetrahydro-2,9,10a-triaza-cyclopenta[b]fluorene-1,3-dione], the EC50 in experiment [1] is not above 39.8 nM; in experiment [2], not below 3160 nM.

For the molecule `CNCCN1C(=O)N2[C@H](c3cccc(O)c3)c3[nH]c4ccc(OC)cc4c3C[C@@]2(C)C1=O` (racemic) [Example 27, (3aSR,10RS)-10-(3-Hydroxy-phenyl)-6-methoxy-3a-methyl-2-(2-methylamino-ethyl)-3a,4,9,10-tetrahydro-2,9,10a-triaza-cyclopenta[b]fluorene-1,3-dione], the EC50 was not above 39.8 nM in experiment [1] and not below 3160 nM in experiment [2].

`CCN(C)CCN1C(=O)N2[C@H](c3cccc(O)c3)c3[nH]c4ccc(Cl)cc4c3C[C@@]2(C)C1=O` (racemic) [Example 40, (3aSR,10RS)-6-Chloro-2-[2-(ethyl-methyl-amino)-ethyl]-10-(3-hydroxy-phenyl)-3a-methyl-3a,4,9,10-tetrahydro-2,9,10a-triaza-cyclopenta[b]fluorene-1,3-dione]: the EC50 in experiment [1] is not above 39.8 nM; in experiment [2], not below 3160 nM.

`COc1ccc2[nH]c3c(c2c1)C[C@@]1(C)C(=O)N(CCN(C)C)C(=O)N1[C@@H]3c1cccc(O)c1` (racemic) [Example 7, (3aSR,10RS)-2-(2-Dimethylamino-ethyl)-10-(3-hydroxy-phenyl)-6-methoxy-3a-methyl-3a,4,9,10-tetrahydro-2,9,10a-triaza-cyclopenta[b]fluorene-1,3-dione]: the EC50 is not above 39.8 nM in experiment [1] and not below 3160 nM in experiment [2].

With `C[C@@]12Cc3c([nH]c4ccc(OC(F)F)cc34)[C@@H](c3cccc(O)c3)N1C(=O)N(CCN1CCC1)C2=O` (racemic) [Example 44, (3aSR,10RS)-2-(2-Azetidin-1-yl-ethyl)-6-(1,1-difluoro-methoxy)-10-(3-hydroxy-phenyl)-3a-methyl-3a,4,9,10-tetrahydro-2,9,10a-triaza-cyclopenta[b]fluorene-1,3-dione], the EC50 in experiment [1] is not above 39.8 nM; in experiment [2] it was not below 3160 nM.

Turning to `COc1ccc2[nH]c3c(c2c1)C[C@@]1(C)C(=O)N(CCNCC2CC2)C(=O)N1[C@@H]3c1cccc(O)c1` (racemic) [Example 48, (3aSR,10RS)-2-[2-(Cyclopropylmethyl-amino)-ethyl]-10-(3-hydroxy-phenyl)-6-methoxy-3a-methyl-3a,4,9,10-tetrahydro-2,9,10a-triaza-cyclopenta[b]fluorene-1,3-dione], the EC50 in experiment [1] was not above 39.8 nM; in experiment [2], not below 3160 nM.

With `C[C@@]12Cc3c([nH]c4ccc(Cl)cc34)[C@@H](c3cccc(O)c3)N1C(=O)N(CCn1ccnc1)C2=O` (racemic) [Example 31, (3aSR,10RS)-6-Chloro-10-(3-hydroxy-phenyl)-2-(2-imidazol-1-yl-ethyl)-3a-methyl-3a,4,9,10-tetrahydro-2,9,10a-triaza-cyclopenta[b]fluorene-1,3-dione], the results for the EC50 in experiment [1] and in experiment [2] were 39.8 to 251 nM and not below 3160 nM, respectively.

In the case of `COc1ccc2[nH]c3c(c2c1)C[C@@]1(C)C(=O)N(CCCCN(C)C)C(=O)N1[C@@H]3c1cccc(O)c1` (racemic) [Example 14, (3aSR,10RS)-2-(4-Dimethylamino-butyl)-10-(3-hydroxy-phenyl)-6-methoxy-3a-methyl-3a,4,9,10-tetrahydro-2,9,10a-triaza-cyclopenta[b]fluorene-1,3-dione], the EC50 was not above 39.8 nM in experiment [1] and not below 3160 nM in experiment [2].

Take `CCOc1ccc2[nH]c3c(c2c1)C[C@@]1(C)C(=O)N(CCNC)C(=O)N1[C@@H]3c1cccc(O)c1` (racemic) [Example 41, (3aSR,10RS)-6-Ethoxy-10-(3-hydroxy-phenyl)-3a-methyl-2-(2-methylamino-ethyl)-3a,4,9,10-tetrahydro-2,9,10a-triaza-cyclopenta[b]fluorene-1,3-dione]: the half-maximal effective concentration (EC50) in experiment [1] is not above 39.8 nM; in experiment [2], not below 3160 nM.

As for `C[C@@]12Cc3c([nH]c4ccc(Cl)cc34)[C@@H](c3cccc(O)c3)N1C(=O)N(CCN1CCC1)C2=O` (racemic) [Example 29, (3aSR,10RS)-2-(2-Azetidin-1-yl-ethyl)-6-chloro-10-(3-hydroxy-phenyl)-3a-methyl-3a,4,9,10-tetrahydro-2,9,10a-triaza-cyclopenta[b]fluorene-1,3-dione], the EC50 in experiment [1] is not above 39.8 nM; in experiment [2], not below 3160 nM.

As to `COc1ccc2[nH]c3c(c2c1)C[C@@]1(C)C(=O)N(CCN2CCC2)C(=O)N1[C@@H]3c1cccc(O)c1` (racemic) [Example 33, (3aSR,10RS)-2-(2-Azetidin-1-yl-ethyl)-10-(3-hydroxy-phenyl)-6-methoxy-3a-methyl-3a,4,9,10-tetrahydro-2,9,10a-triaza-cyclopenta[b]fluorene-1,3-dione], the EC50 in experiment [1] was not above 39.8 nM; in experiment [2] it was not below 3160 nM.

Regarding `COc1ccc2[nH]c3c(c2c1)C[C@@]1(C)C(=O)N(C)C(=O)N1[C@@H]3c1cccc(O)c1` (racemic) [Example 3, (3aSR,10RS)-10-(3-Hydroxy-phenyl)-6-methoxy-2,3a-dimethyl-3a,4,9,10-tetrahydro-2,9,10a-triaza-cyclopenta[b]fluorene-1,3-dione], the EC50 in experiment [1] was not above 39.8 nM; in experiment [2], not below 3160 nM.

Take `CCOc1ccc2[nH]c3c(c2c1)C[C@@]1(C)C(=O)N(C)C(=O)N1[C@@H]3c1cccc(O)c1` (racemic) [Example 1, (3aSR,10RS)-6-Ethoxy-10-(3-hydroxy-phenyl)-2,3a-dimethyl-3a,4,9,10-tetrahydro-2,9,10a-triaza-cyclopenta[b]fluorene-1,3-dione]: the EC50 in experiment [1] was 39.8 to 251 nM; in experiment [2] it was not below 3160 nM.
